From PMC11845477, “Exploring the principles behind antibiotics with limited resistance” (Nature Communications, 2025)

Legend:
[1] = test system: E. coli ATCC 25922 (SEN) and E. coli NCTC13846 (MDR); assay: Adaptive laboratory evolution (ALE), relative MIC of evolved lines; assay type: cell-based, Escherichia coli
Method in brief: (§1)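 Ten parallel populations per antibiotic–ancestor pair were evolved in MHB at 37 °C, starting near 50% growth-inhibiting drug. Every 72 h they were passaged into 0.5–2.5× increasing concentrations, keeping the highest-drug well with OD600 > 0.2.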

[2] = test system: A. baumannii ATCC 17978 (SEN) and A. baumannii ATCC BAA-1605 (MDR); assay: as above; assay type: cell-based, Acinetobacter baumannii; conditions: AB-MDR (A. baumannii ATCC BAA 1605)
Method in brief: as §1

[3] = EC-SEN (Escherichia coli ATCC 25922), evolved line 3
[4] = EC-SEN (Escherichia coli ATCC 25922), evolved line 4
[5] = EC-SEN (Escherichia coli ATCC 25922), evolved line 5
[6] = EC-SEN (Escherichia coli ATCC 25922), evolved line 7
[7] = EC-SEN (Escherichia coli ATCC 25922), evolved line 10

CC(C)c1ccc(Cn2ccc3c4c(N)nc(NC5CC5)nc4ccc32)cc1 [SCH79797]
Relative MIC ([1]; ALE, Escherichia coli ATCC 25922 (EC-SEN), evolved line 1): 4 | Relative MIC ([1]; ALE, Escherichia coli ATCC 25922 (EC-SEN), evolved line 2): 4 | Relative MIC ([1]; ALE, Escherichia coli ATCC 25922 (EC-SEN), evolved line 3): 4 | Relative MIC ([1]; ALE, Escherichia coli ATCC 25922 (EC-SEN), evolved line 4): 4 | Relative MIC ([1]; ALE, Escherichia coli ATCC 25922 (EC-SEN), evolved line 5): 4 | Relative MIC ([1]; ALE, Escherichia coli ATCC 25922 (EC-SEN), evolved line 7): 4 | Relative MIC ([1]; ALE, Escherichia coli ATCC 25922 (EC-SEN), evolved line 8): 2 | Relative MIC ([1]; ALE, Escherichia coli ATCC 25922 (EC-SEN), evolved line 9): 2 | Relative MIC ([1]; ALE, Escherichia coli ATCC 25922 (EC-SEN), evolved line 10): 4 | MIC of evolved line ([1]; EC-SEN (E. coli ATCC 25922), evolved line 1 of the given antibiotic): 16 µg/mL | Relative MIC ([1]; EC-SEN (E. coli ATCC 25922), evolved line 1 vs ancestor): 4 | MIC of evolved line ([1]; EC-SEN (E. coli ATCC 25922), evolved line 2 of the given antibiotic): 16 µg/mL | Relative MIC ([1]; EC-SEN (E. coli ATCC 25922), evolved line 2 vs ancestor): 4 | MIC of evolved line ([1]; EC-SEN (E. coli ATCC 25922), evolved line 3 of the given antibiotic): 16 µg/mL | Relative MIC ([1]; EC-SEN (E. coli ATCC 25922), evolved line 3 vs ancestor): 4 | MIC of evolved line ([1]; EC-SEN (E. coli ATCC 25922), evolved line 4 of the given antibiotic): 16 µg/mL | Relative MIC ([1]; EC-SEN (E. coli ATCC 25922), evolved line 4 vs ancestor): 4 | MIC of evolved line ([1]; EC-SEN (E. coli ATCC 25922), evolved line 5 of the given antibiotic): 16 µg/mL | Relative MIC ([1]; EC-SEN (E. coli ATCC 25922), evolved line 5 vs ancestor): 4 | MIC of evolved line ([1]; EC-SEN (E. coli ATCC 25922), evolved line 7 of the given antibiotic): 16 µg/mL | Relative MIC ([1]; EC-SEN (E. coli ATCC 25922), evolved line 7 vs ancestor): 4 | MIC of evolved line ([1]; EC-SEN (E. coli ATCC 25922), evolved line 8 of the given antibiotic): 8 µg/mL | Relative MIC ([1]; EC-SEN (E. coli ATCC 25922), evolved line 8 vs ancestor): 2 | MIC of evolved line ([1]; EC-SEN (E. coli ATCC 25922), evolved line 9 of the given antibiotic): 8 µg/mL | Relative MIC ([1]; EC-SEN (E. coli ATCC 25922), evolved line 9 vs ancestor): 2 | MIC of evolved line ([1]; EC-SEN (E. coli ATCC 25922), evolved line 10 of the given antibiotic): 16 µg/mL | Relative MIC ([1]; EC-SEN (E. coli ATCC 25922), evolved line 10 vs ancestor): 4 | Relative MIC [1, 3]: 4 | Relative MIC (log10) [1, 3]: 0.6021 log10 | Relative MIC [1, 4]: 4 | Relative MIC (log10) [1, 4]: 0.6021 log10 | Relative MIC [1, 5]: 4 | Relative MIC (log10) [1, 5]: 0.6021 log10 | Relative MIC [1, 6]: 4 | Relative MIC (log10) [1, 6]: 0.6021 log10 | Relative MIC ([1]; EC-SEN (Escherichia coli ATCC 25922), evolved line 8): 2 | Relative MIC ([1]; EC-SEN (Escherichia coli ATCC 25922), evolved line 9): 2 | Relative MIC [1, 7]: 4 | Relative MIC (log10) [1, 7]: 0.6021 log10 | Relative MIC ([1]; EC-SEN, Escherichia coli ATCC 25922, evolved line 1): 4 | Relative MIC ([1]; EC-SEN, Escherichia coli ATCC 25922, evolved line 2): 4 | Relative MIC ([1]; Escherichia coli ATCC 25922 (EC-SEN), evolved line 1): 4 | Relative MIC ([1]; Escherichia coli ATCC 25922 (EC-SEN), evolved line 2): 4 | Relative MIC ([1]; Escherichia coli ATCC 25922 (EC-SEN), evolved line 3): 4 | Relative MIC ([1]; Escherichia coli ATCC 25922 (EC-SEN), evolved line 4): 4 | Relative MIC ([1]; Escherichia coli ATCC 25922 (EC-SEN), evolved line 5): 4 | Relative MIC ([1]; Escherichia coli ATCC 25922 (EC-SEN), evolved line 7): 4 | Relative MIC ([1]; Escherichia coli ATCC 25922 (EC-SEN), evolved line 8): 2 | Relative MIC ([1]; Escherichia coli ATCC 25922 (EC-SEN), evolved line 9): 2 | Relative MIC ([1]; Escherichia coli ATCC 25922 (EC-SEN), evolved line 10): 4 | MIC of evolved line ([2]; evolved line 2 of the given antibiotic): 8 µg/mL | Relative MIC ([2]; evolved line 2 vs ancestor): 2 | MIC of evolved line ([2]; evolved line 5 of the given antibiotic): 8 µg/mL | Relative MIC ([2]; evolved line 5 vs ancestor): 2 | MIC of evolved line ([2]; evolved line 7 of the given antibiotic): 16 µg/mL | Relative MIC ([2]; evolved line 7 vs ancestor): 4 | MIC of evolved line ([2]; evolved line 9 of the given antibiotic): 8 µg/mL
